Test results: ChEMBL document CHEMBL1155092, “Antibacterial activity of labdane diterpenoids from Stemodia foliosa” (2008)
≈ marks a conversion by molar mass, not a printed value. Calls of active or inactive are those of the source. No cut-off for these calls is given here.

Columns and labels:
[1] = tested on: Mycolicibacterium phlei; assay: Antimicrobial activity against Mycobacterium phlei; format: functional
[2] = tested on: Staphylococcus aureus; assay: Antimicrobial activity against Staphylococcus aureus; format: functional
[3] = tested on: Bacillus anthracis; assay: Antimicrobial activity against Bacillus anthracis; format: functional
[4] = tested on: Bacillus subtilis; assay: Antimicrobial activity against Bacillus subtilis; format: functional
[5] = tested on: Micrococcus luteus; assay: Antimicrobial activity against Micrococcus luteus; format: functional
[6] = tested on: Bacillus cereus; assay: Antimicrobial activity against Bacillus cereus; format: functional
[7] = tested on: Mycolicibacterium smegmatis; assay: Antimicrobial activity against Mycobacterium smegmatis; format: functional
[8] = tested on: Micrococcus luteus; assay: Antimicrobial activity against Micrococcus luteus at 50 ug/ml; format: functional, organism-based
[9] = tested on: Mycolicibacterium smegmatis; assay: Antimicrobial activity against Mycobacterium smegmatis at 50 ug/ml; format: functional, organism-based
[10] = tested on: Bacillus subtilis; assay: Antimicrobial activity against Bacillus subtilis at 50 ug/ml; format: functional, organism-based
[11] = tested on: Staphylococcus aureus; assay: Antimicrobial activity against Staphylococcus aureus at 50 ug/ml; format: functional, organism-based
[12] = tested on: Bacillus anthracis; assay: Antimicrobial activity against Bacillus anthracis at 50 ug/ml; format: functional, organism-based
[13] = tested on: Mycolicibacterium phlei; assay: Antimicrobial activity against Mycobacterium phlei at 50 ug/ml; format: functional, organism-based
[14] = tested on: Bacillus cereus; assay: Antimicrobial activity against Bacillus cereus at 50 ug/ml; format: functional, organism-based

SMILES	MIC [1]	MIC [2]	MIC [3]	MIC [4]	MIC [5]	MIC [6]	MIC [7]	Activity [8]	Activity [9]	Activity [10]	Activity [11]	Activity [12]	Activity [13]	Activity [14]
C=C[C@@]1(C)CC[C@@H]2[C@@]3(C)CCCC(C)(C)[C@@H]3[C@@H](OC(=O)CC(=O)O)C[C@@]2(C)O1	9 µg/mL (≈ 22.9 µM)	15 µg/mL (≈ 38.2 µM)	20 µg/mL (≈ 51 µM)	15 µg/mL (≈ 38.2 µM)	17 µg/mL (≈ 43.3 µM)	15 µg/mL (≈ 38.2 µM)	7 µg/mL (≈ 17.8 µM)							
C=C[C@@]1(C)CC[C@@H]2[C@@]3(C)CCCC(C)(C)[C@@H]3[C@@H](OC(C)=O)C[C@@]2(C)O1								inactive	inactive	inactive	inactive	inactive	inactive	inactive
CC[C@H]1OC(=O)[C@H](C)[C@@H](O[C@H]2C[C@@](C)(OC)[C@@H](O)[C@H](C)O2)[C@H](C)[C@@H](O[C@@H]2O[C@H](C)C[C@H](N(C)C)[C@H]2O)[C@](C)(OC)C[C@@H](C)C(=O)[C@H](C)[C@@H](O)[C@]1(C)O [CLARITHROMYCIN]	0.5 µg/mL (≈ 0.668 µM)	0.8 µg/mL (≈ 1.07 µM)	1.3 µg/mL (≈ 1.74 µM)	1.7 µg/mL (≈ 2.27 µM)	2 µg/mL (≈ 2.67 µM)		0.5 µg/mL (≈ 0.668 µM)							
C=C[C@@]1(C)CC[C@@H]2[C@@]3(C)CCCC(C)(C)[C@@H]3[C@@H](OC(=O)CC(=O)OCCCC)C[C@@]2(C)O1								inactive	inactive	inactive	inactive	inactive	inactive	inactive
